Assay [1] relates to Ovariectomized Rats with Established Osteopenia. Nature of the assay: pQCT total and trabecular density (BMD) of proximal tibia in OVX rats. In kind it is in vivo, rat. The following applies: for ΔTotal Density / ΔTrabecular Density: 40 μg/kg sc, mean ± SEM. How it is done:
The total density of the proximal tibia was evaluated in anesthetized rats using peripheral quantitative computed tomography (pQCT) with XCT-960M (Stratec Medizintechnik, Pforzheim, Germany). The baseline and post-treatment measurements were performed in anesthetized rats as follows: The right hind limb was passed through a polycarbonate tube with a diameter of 25 mm and taped to an acrylic frame with the ankle joint at a 90° angle and the knee joint at 180°. The polycarbonate tube was affixed to a sliding platform that maintained it perpendicular to the aperture of the pQCT. The platform was adjusted so that the distal end of the femur and the proximal end of the tibia would be in the scanning field. A two dimensional scout view was run for a length of 10 mm and a line resolution of 0.2 mm. […] The pQCT scan was initiated 3.4 mm distal from this point. […] A region of interest including the tibia but excluding the fibula was outlined. The soft tissue was automatically removed using an iterative algorithm. The density of the remaining bone (Total density) was reported in mg/cm^3. The change in total density was calculated for each animal by subtracting post-treatment and baseline total density values.
Female Wister rats 4 weeks of age were treated with vehicle (saline) and human PTH (1-34) at a dose of 40 μg/kg of body weight for eight days. Prior to PTH administration animals were ovariectomized (OVX). Three weeks post OVX total BMD was measured to determine if osteopenia was established. Subcutaneous injection of PTH once a day represented intermittent administration of PTH, while osmotic pump with release rate of 40 μg/kg/day implanted under the skin represented continuous way of PTH administration. On the eight day of treatment, 6 hours post treatment animals were scarified and samples were collected for further analysis. Each treatment group contained 8 animals.
PTH (1-34) in a dose of 40 μg/kg was administered for eight days to the 3 weeks OVX rats in intermitted and continuous manner to induce anabolic and catabolic PTH effects respectively. As described in General Method section, intermittent administration of PTH was presented by once a day subcutaneous injection of PTH while continues administration was presented with osmotic pumps implanted under the skin with release rate of 40 μg/kg a day. Total bone mineral density was measured using pQCT. Intermittent PTH injection induced significant increases in total BMD, with Δ BMD of […] (FIG. 1). […] Thus, PTH exerts its effect on bone anabolic and catabolic (i.e., causing a decrease in BMD) depending of the way of its administration.
In order to examine whether changes in PAIGB expression with intermittent PTH treatment correlates with effects of PTH on bone, samples from rats treated with PTH for 2, 4 and 8 days were subjected to BMD measurements for both total and trabecular bone (trabecular density of proximal tibia was measured). Two days PTH treatment increases expression of PAIGB. At the same time point significant increase in trabecular BMD (Δ trabecular density: 6.98+/−17.90 with PTH treatment vs −27.1+/−9.27 with vehicle treatment) was detected without any significant changes in total BMD (Δ total density: −9.15+/−2.94 PTH vs 0.69+/−4.10 vehicle) (Table 1).

Assay [2] deals with PAIGB expression. Briefly: Northern blot of PAIGB in rat tibia RNA. It counts as in vivo. The conditions noted are these: intermittent PTH. The procedure: Isolated RNA was run on 1.2% agorase gel in 1×MOPS ((3-[N-morpholino]propanesulfonic acid) buffer) and formaldehyde. RNA gel was run in 1×MOPS (Sigma). RNA was transferred on nylon membrane (S&S) using Turbo-blot according to instruction provided by manufacturer (S&S). RADE fragment(s) as well as GAPDH or ciclophylin were labeled using random prime labeling kit (Gibco, BRL) according to provided instructions. Hybridization with labeled probes was performed using ExpressHyb (Sigma), at 68° C. over night. Blots were washed 2 times at room temperature for 15 min in low stringency buffer (2×SSC, 0.1% SDS), and 1 time at 65° C. for 15 min in […]. Blots were exposed over night using Kodak film.
In order to confirm the results from RADE experiments data, Northern blot analysis was done on RNA samples from rat tibia after intermittent and continuous PTH injections. […] In addition a multiple tissue northern blot was performed on the samples provided by commercially available blots. The northern blot analysis indicated very abundant expression of PAIGB in brain, but little expression in heart and lung.

In assay [3] the test system is PAIGB mRNA. Nature of the assay: In situ hybridization of PAIGB mRNA in mouse calvariae. In kind it is in vivo. The conditions noted are these: Swiss Webster mice, 100 μg/kg/day sc, 30 days. How it is done: In situ analysis of PAIGB mRNA expression can be assessed in various animal species including human bone biopsy samples or from mouse, rat, dog bone samples etc., that have been treated with bone forming agents. Swiss Webster mice that have been treated with 100 μg/kg/day PTH 1-34 subcutaneously or 30 days. Mouse calvariae were gently dissected and fixed in 4% paraformaldehyde. Following fixation, the bones were decalcified in TBD-2 decalcifying agent (Shandon Lipshaw, Pittsburgh, Pa.) for 7-8 hrs then dehydrated in graded alcohol. The calvariae was subsequently bisected perpendicular to the sagittal suture through the central portion of the parietal bones parallel to the lambdoidal and coronal sutures and embedded in paraffin (femur and tibia samples are embedded longitudinally in paraffin). Four to six 5 μm-thick representative, non-consecutive step sections were cut for further analysis. Selected sections were stained with hematoxylin and eosin (Shandon Lipshaw, Pittsburgh, Pa.) and adjacent section were used for in situ hybridization. […] The expression of mRNA are evaluated using a Nikon microscope with either bright or dark field.

The mark [4] stands for this setting: four days treatment, listed as HPTH (1–34).
[5] abbreviates: four days treatment, listed as PTH.
The mark [6] stands for this setting: two days treatment, listed as HPTH (1–34).
[7] abbreviates: two days treatment, listed as PTH.

These results are taken from US7258999B2, “PTH responsive gene” (Wyeth, priority 2002, dated 2007).

On to human PTH (1-34), for which the “change in total BMD” value in assay [1] (continuous: osmotic pump 40 μg/kg a day, eight days, 3 weeks OVX rats) was “did not induce any changes”. In addition, the “ΔTotal Density” value in assay [1] (setting [4]) is -10.56 ± 3.11 mg/mL; in assay [1] (setting [5]), 10.56 ± 3.11 mg/mL; in assay [1] (setting [6]) it was -9.15 ± 2.94 mg/mL; in assay [1] (setting [7]), -9.15 ± 2.94 mg/mL. For the same substance, the “ΔTrabecular Density” value amounted to 8.70 ± 9.98 mg/mL in assay [1] (setting [4]), 8.70 ± 9.98 mg/mL in assay [1] (setting [5]), 6.98 ± 17.90 mg/mL in assay [1] (setting [6]) and 6.98 ± 17.90 mg/mL in assay [1] (setting [7]). Besides, the Δ BMD (total BMD) in assay [1] (intermittent: 40 μg/kg once a day sc, eight days, 3 weeks OVX rats) came out at 80 mg/cm³. For the same substance, the “increase of PAIGB expression vs vehicle (phosphor-imager, Northern blot)” value in assay [2] came out at 36 fold. In assay [3], the “PAIGB mRNA expression in calvariae (in situ hybridization)” value is given as “induced in osteoblastic cells adjacent to the bone surface in the periosteum”.
